Reference: patent US20070254314A1, “Methods of treating autism and autism spectrum disorders” (priority 2004, published 2007)
Read-outs that look alike come from different tables or passages of the source.

Columns and labels:
[1] = Text: (§1) The toxic metals were reported as μg/g creatinine in order to account for urine dilution variations.
as §1, §1, §1

[2] = tested on: subject suffering from autism or an autism spectrum disorder; experiment: Clinical observation of symptoms (physician, parents, educators); assay type: in vivo, human
[3] = following three days of oral chelation with DMSA; cited from earlier work
[4] = tested on: rats of the JCL-SD strain; conditions: 0.3 to 2 mg/kg intravenously; male more susceptible; cited from earlier work
[5] = tested on: neuronal damage in tissue culture; conditions: cited from earlier work
susceptible mouse strain = conditions: weight- and age-adjusted 1990s US immunization schedule; cited from earlier work
neurons = conditions: nanomolar (nM) to micromolar (μM) concentrations, within hours of exposure; cited from earlier work
[6] = cited from earlier work
chick embryo = conditions: single 50 μg of mercury dose; cited from earlier work
[7] = Child X (autistic person), urine collected Nov. 5, 2000, during DMSA treatment, creatinine 43.4 mg/dL
[8] = Child X, urine collected Sep. 30, 2001, during DMSA treatment, creatinine 54 mg/dL
[9] = Child Y (autistic person), urine collected Jun. 29, 2002, during DMSA treatment, creatinine 6.9 mg/dL
[10] = Child Y, urine collected Dec. 24, 2002, during DMSA treatment, creatinine 8.6 mg/dL

For O=C(O)[C@@H](S)[C@@H](S)C(=O)O [DMSA, meso-2,3-dimercaptosuccinic acid], the “Mercury in urine on DMSA treatment” value ([1]; Child X, DMSA Oct. 21, 2000 through Feb. 3, 2002) was “spilled toxic levels of mercury in their urine”, the “Mercury in urine on DMSA treatment” value ([1]; Child Y, DMSA Jun. 26, 2002 to May 2, 2003) was “spilled toxic levels of mercury in their urine” and the “Clinical improvement as a result of DMSA treatment” value ([2]; Child X) was “some improvement”. The “Improvement in autism on DMSA treatment” value ([2]; Child Y) was “did not show significant improvement” and the “Urinary mercury concentration, autistic children versus matched normal controls” value [3] was “approximately 6 fold”.
In the case of [Cl][Hg][Cl] [mercuric chloride], the Renal toxicity [4] is given as “acute renal tubular necrosis was produced”.
In the case of C[C@]12CC[C@H]3[C@@H](CCC4=CC(=O)CC[C@@]43C)[C@@H]1CC[C@@H]2O [testosterone], the “Effect of concurrent exposure on mercury induced neuronal damage” value [5] is given as “exacerbated”.
For C[CH2][Hg][S]c1ccccc1C(=O)[O-].[Na+] [thimerosal], the Neurotoxic effects (susceptible mouse strain) is given as “autistic symptoms in a susceptible mouse strain”, the Effects on neurons (neurons) is given as “inducing neuronal death, neurodegeneration, membrane damage, and DNA damage” and the “Passage of the blood-brain barrier” value ([6]; infant monkeys, doses comparable to the US dosing schedule) is given as “crosses the blood-brain barrier”. For the same compound, the “Half-life of inorganic mercury in the brain” value ([6]; infant monkeys) was greater than 120 days, the “Maximum mercury concentration observed in the brain” value ([6]; infant monkeys) was “approximately 50 parts-per-billion” and the “Overall half-life of mercury in the brain” value ([6]; infant monkeys) was “approximately 24 days”. For the same compound, the “Inorganic mercury in the brains” value ([6]; thimerosal-treated infant monkeys, average following the dosing schedule) was 16 parts-per-billion and the “Fetal lethality and teratogenicity compared to controls” value (chick embryo) was “significant fetal lethality and teratogenecity”.
In the case of Aluminum, the “Toxic metals in urine, Results” value [1, 7] is reported as 26 μg/g creatinine, the “Toxic metals in urine, Results” value [1, 8] is reported as 14 μg/g creatinine and the “Toxic metals in urine, Results” value [1, 9] is reported as “<dl*”. The “Toxic metals in urine, Results” value [1, 10] was “<dl*”.
For Antimony, the “Toxic metals in urine, Results” value [1, 7] was 0.4 μg/g creatinine, the “Toxic metals in urine, Results” value [1, 8] was “<dl*” and the “Toxic metals in urine, Results” value [1, 9] was “<dl”. The “Toxic metals in urine, Results” value [1, 10] was “<dl”.
In the case of Arsenic, the “Toxic metals in urine, Results” value [1, 7] is reported as 98 μg/g creatinine, the “Toxic metals in urine, Results” value [1, 8] is reported as 37 μg/g creatinine and the “Toxic metals in urine, Results” value [1, 9] is reported as 31 μg/g creatinine. For the same compound, the “Toxic metals in urine, Results” value [1, 10] was 23 μg/g creatinine.
For Beryllium, the “Toxic metals in urine, Results” value [1, 7] was “<dl*”, the “Toxic metals in urine, Results” value [1, 8] was “<dl” and the “Toxic metals in urine, Results” value [1, 9] was “<dl”. For the same compound, the “Toxic metals in urine, Results” value [1, 10] was “<dl”.
With Bismuth the “Toxic metals in urine, Results” value [1, 7] was 0.8 μg/g creatinine, the “Toxic metals in urine, Results” value [1, 8] was “<dl” and the “Toxic metals in urine, Results” value [1, 9] was “<dl”. The “Toxic metals in urine, Results” value [1, 10] was “<dl”.
In the case of Cadmium, the “Toxic metals in urine, Results” value [1, 7] is reported as 1.4 μg/g creatinine, the “Toxic metals in urine, Results” value [1, 8] is reported as 0.5 μg/g creatinine and the “Toxic metals in urine, Results” value [1, 9] is reported as “<dl”. The “Toxic metals in urine, Results” value [1, 10] was 1.6 μg/g creatinine.
In the case of Lead, the “Toxic metals in urine, Results” value [1, 7] is reported as 12 μg/g creatinine, the “Toxic metals in urine, Results” value [1, 8] is reported as 8.6 μg/g creatinine and the “Toxic metals in urine, Results” value [1, 9] is reported as “<dl”. For the same compound, the “Toxic metals in urine, Results” value [1, 10] was “<dl”.
In the case of Platinum, the “Toxic metals in urine, Results” value [1, 7] is reported as 0.2 μg/g creatinine, the “Toxic metals in urine, Results” value [1, 8] is reported as “<dl” and the “Toxic metals in urine, Results” value [1, 9] is reported as “<dl”. For the same compound, the “Toxic metals in urine, Results” value [1, 10] was “<dl”.
With Thallium the “Toxic metals in urine, Results” value [1, 7] was 0.2 μg/g creatinine, the “Toxic metals in urine, Results” value [1, 8] was 0.2 μg/g creatinine and the “Toxic metals in urine, Results” value [1, 9] was 0.9 μg/g creatinine. The “Toxic metals in urine, Results” value [1, 10] was 0.6 μg/g creatinine.
For Tungsten, the “Toxic metals in urine, Results” value [1, 7] was “<dl”, the “Toxic metals in urine, Results” value [1, 8] was 0.3 μg/g creatinine and the “Toxic metals in urine, Results” value [1, 9] was “<dl”. The “Toxic metals in urine, Results” value [1, 10] was 1.6 μg/g creatinine.
For estrogen, the “Effect of concurrent exposure on mercury induced neuronal damage” value [5] is given as “ameliorated”.
